Test results published in the NIST ThermoML archive (doi:10.1016/j.jct.2004.12.008).
Numbers after ± are expanded uncertainties.

Assay: xn = mol fraction of the nth substance listed
Settings: 101 kPa, Liquid

SMILES: O=[N+]([O-])c1ccccc1 [nitrobenzene] + c1ccccc1
- mass density (293.15 K, x2 = 0): 1202.95 ± 2.3 kg/m3
- mass density (293.15 K, x2 = 0.0532): 1187.99 ± 2.2 kg/m3
- mass density (293.15 K, x2 = 0.1189): 1169.24 ± 2 kg/m3
- mass density (293.15 K, x2 = 0.1842): 1150.3 ± 1.9 kg/m3
- mass density (293.15 K, x2 = 0.2479): 1131.5 ± 1.7 kg/m3
- mass density (293.15 K, x2 = 0.3012): 1115.52 ± 1.6 kg/m3
- mass density (293.15 K, x2 = 0.3581): 1098.17 ± 1.4 kg/m3
- mass density (293.15 K, x2 = 0.425): 1077.37 ± 1.3 kg/m3
- mass density (293.15 K, x2 = 0.4891): 1057.04 ± 1.1 kg/m3
- mass density (293.15 K, x2 = 0.5311): 1043.49 ± 1 kg/m3
- mass density (293.15 K, x2 = 0.6023): 1020.07 ± 0.83 kg/m3
- mass density (293.15 K, x2 = 0.6521): 1003.34 ± 0.7 kg/m3
- mass density (293.15 K, x2 = 0.7198): 980.14 ± 0.83 kg/m3
- mass density (293.15 K, x2 = 0.7811): 958.64 ± 1 kg/m3
- mass density (293.15 K, x2 = 0.8534): 932.66 ± 1.2 kg/m3
- mass density (293.15 K, x2 = 0.9212): 907.66 ± 1.4 kg/m3
- mass density (303.15 K, x2 = 0): 1193.56 ± 2.2 kg/m3
- mass density (303.15 K, x2 = 0.0612): 1176.18 ± 2.1 kg/m3
- mass density (303.15 K, x2 = 0.1384): 1153.92 ± 1.9 kg/m3
- mass density (303.15 K, x2 = 0.1732): 1143.76 ± 1.8 kg/m3
- mass density (303.15 K, x2 = 0.2543): 1119.7 ± 1.6 kg/m3
- mass density (303.15 K, x2 = 0.3132): 1101.89 ± 1.5 kg/m3
- mass density (303.15 K, x2 = 0.3821): 1080.7 ± 1.3 kg/m3
- mass density (303.15 K, x2 = 0.4422): 1061.84 ± 1.2 kg/m3
- mass density (303.15 K, x2 = 0.4922): 1045.9 ± 1 kg/m3
- mass density (303.15 K, x2 = 0.5543): 1025.75 ± 0.88 kg/m3
- mass density (303.15 K, x2 = 0.6123): 1006.56 ± 0.72 kg/m3
- mass density (303.15 K, x2 = 0.6831): 982.62 ± 0.81 kg/m3
- mass density (303.15 K, x2 = 0.7534): 958.28 ± 1 kg/m3
- mass density (303.15 K, x2 = 0.8113): 937.78 ± 1.2 kg/m3
- mass density (303.15 K, x2 = 0.8713): 916.1 ± 1.3 kg/m3
- mass density (303.15 K, x2 = 0.9378): 891.52 ± 1.5 kg/m3
- mass density (313.15 K, x2 = 0): 1183.37 ± 2.1 kg/m3
- mass density (313.15 K, x2 = 0.0522): 1168.46 ± 2 kg/m3
- mass density (313.15 K, x2 = 0.1234): 1147.88 ± 1.9 kg/m3
- mass density (313.15 K, x2 = 0.1923): 1127.63 ± 1.7 kg/m3
- mass density (313.15 K, x2 = 0.2612): 1107.04 ± 1.5 kg/m3
- mass density (313.15 K, x2 = 0.3122): 1091.57 ± 1.4 kg/m3
- mass density (313.15 K, x2 = 0.3723): 1073.06 ± 1.2 kg/m3
- mass density (313.15 K, x2 = 0.4234): 1057.08 ± 1.1 kg/m3
- mass density (313.15 K, x2 = 0.4865): 1037.03 ± 0.97 kg/m3
- mass density (313.15 K, x2 = 0.5382): 1020.3 ± 0.84 kg/m3
- mass density (313.15 K, x2 = 0.6032): 998.9 ± 0.68 kg/m3
- mass density (313.15 K, x2 = 0.6632): 978.75 ± 0.84 kg/m3
- mass density (313.15 K, x2 = 0.7219): 958.66 ± 1 kg/m3
- mass density (313.15 K, x2 = 0.7932): 933.72 ± 1.2 kg/m3
- mass density (313.15 K, x2 = 0.8428): 916.03 ± 1.3 kg/m3
- mass density (313.15 K, x2 = 0.9247): 886.12 ± 1.6 kg/m3
- mass density (323.15 K, x2 = 0): 1172.38 ± 2 kg/m3
- mass density (323.15 K, x2 = 0.0479): 1158.64 ± 1.9 kg/m3
- mass density (323.15 K, x2 = 0.1387): 1132.24 ± 1.7 kg/m3
- mass density (323.15 K, x2 = 0.1842): 1118.82 ± 1.6 kg/m3
- mass density (323.15 K, x2 = 0.2487): 1099.55 ± 1.5 kg/m3
- mass density (323.15 K, x2 = 0.3286): 1075.26 ± 1.3 kg/m3
- mass density (323.15 K, x2 = 0.392): 1055.64 ± 1.1 kg/m3
- mass density (323.15 K, x2 = 0.435): 1042.13 ± 1 kg/m3
- mass density (323.15 K, x2 = 0.5023): 1020.68 ± 0.84 kg/m3
- mass density (323.15 K, x2 = 0.543): 1007.49 ± 0.73 kg/m3
- mass density (323.15 K, x2 = 0.592): 991.42 ± 0.74 kg/m3
- mass density (323.15 K, x2 = 0.6633): 967.59 ± 0.93 kg/m3
- mass density (323.15 K, x2 = 0.7328): 943.85 ± 1.1 kg/m3
- mass density (323.15 K, x2 = 0.7931): 922.82 ± 1.3 kg/m3
- mass density (323.15 K, x2 = 0.8538): 901.23 ± 1.5 kg/m3
- mass density (323.15 K, x2 = 0.9423): 868.96 ± 1.7 kg/m3
- mass density (333.15 K, x2 = 0): 1160.59 ± 1.9 kg/m3
- mass density (333.15 K, x2 = 0.0501): 1146.17 ± 1.8 kg/m3
- mass density (333.15 K, x2 = 0.1421): 1119.35 ± 1.6 kg/m3
- mass density (333.15 K, x2 = 0.1924): 1104.47 ± 1.5 kg/m3
- mass density (333.15 K, x2 = 0.2517): 1086.72 ± 1.4 kg/m3
- mass density (333.15 K, x2 = 0.3184): 1066.47 ± 1.2 kg/m3
- mass density (333.15 K, x2 = 0.3618): 1053.11 ± 1.1 kg/m3
- mass density (333.15 K, x2 = 0.4248): 1033.47 ± 0.94 kg/m3
- mass density (333.15 K, x2 = 0.4921): 1012.12 ± 0.77 kg/m3
- mass density (333.15 K, x2 = 0.5524): 992.65 ± 0.73 kg/m3
- mass density (333.15 K, x2 = 0.6013): 976.62 ± 0.86 kg/m3
- mass density (333.15 K, x2 = 0.664): 955.73 ± 1 kg/m3
- mass density (333.15 K, x2 = 0.723): 935.71 ± 1.2 kg/m3
- mass density (333.15 K, x2 = 0.7813): 915.56 ± 1.3 kg/m3
- mass density (333.15 K, x2 = 0.8342): 896.97 ± 1.5 kg/m3
- mass density (333.15 K, x2 = 0.9234): 864.89 ± 1.8 kg/m3
- mass density (343.15 K, x2 = 0): 1148 ± 1.9 kg/m3
- mass density (343.15 K, x2 = 0.0632): 1129.76 ± 1.7 kg/m3
- mass density (343.15 K, x2 = 0.1567): 1102.42 ± 1.5 kg/m3
- mass density (343.15 K, x2 = 0.219): 1083.91 ± 1.3 kg/m3
- mass density (343.15 K, x2 = 0.2678): 1069.26 ± 1.2 kg/m3
- mass density (343.15 K, x2 = 0.3347): 1048.9 ± 1.1 kg/m3
- mass density (343.15 K, x2 = 0.3972): 1029.6 ± 0.91 kg/m3
- mass density (343.15 K, x2 = 0.4581): 1010.51 ± 0.76 kg/m3
- mass density (343.15 K, x2 = 0.5124): 993.23 ± 0.73 kg/m3
- mass density (343.15 K, x2 = 0.5639): 976.61 ± 0.86 kg/m3
- mass density (343.15 K, x2 = 0.6384): 952.15 ± 1.1 kg/m3
- mass density (343.15 K, x2 = 0.7038): 930.24 ± 1.2 kg/m3
- mass density (343.15 K, x2 = 0.7598): 911.15 ± 1.4 kg/m3
- mass density (343.15 K, x2 = 0.8234): 889.07 ± 1.6 kg/m3
- mass density (343.15 K, x2 = 0.8824): 868.19 ± 1.7 kg/m3
- mass density (343.15 K, x2 = 0.9423): 846.61 ± 1.9 kg/m3
